Measurements taken from publication PMC11187126, “Structure and dynamics of the pyroglutamylated RF-amide peptide QRFP receptor GPR103” (Nature Communications, 2024).
Where two headings read alike, the source gives them in different places. No end group written: not given here.

Biological target: T1, GPR103 Y214^5.38A (Homo sapiens, UniProt Q96P65, Y214A)
T1 construct: we used human full-length QRFPR-encoding plasmids; expressed in transfected cells; host or cells: HEK293 cells, pCAGGS vector
T1 sequence (Q96P65 1-431 Y214A): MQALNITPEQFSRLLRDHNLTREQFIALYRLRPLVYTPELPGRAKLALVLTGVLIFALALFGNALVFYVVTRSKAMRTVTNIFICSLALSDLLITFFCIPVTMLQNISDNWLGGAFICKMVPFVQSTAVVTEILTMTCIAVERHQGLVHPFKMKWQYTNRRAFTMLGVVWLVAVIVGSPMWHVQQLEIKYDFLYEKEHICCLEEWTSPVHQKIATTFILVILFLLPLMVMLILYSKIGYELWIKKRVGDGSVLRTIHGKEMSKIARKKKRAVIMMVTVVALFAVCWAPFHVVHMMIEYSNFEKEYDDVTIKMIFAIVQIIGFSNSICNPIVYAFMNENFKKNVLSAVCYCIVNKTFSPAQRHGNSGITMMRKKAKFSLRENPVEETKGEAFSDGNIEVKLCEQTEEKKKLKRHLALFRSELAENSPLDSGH
Assay: TGFα shedding assay; Exp. level WT (1:50)
Type: cell-based
Description: For the TGFα shedding assay and the flow cytometry analysis, we used human full-length QRFPR-encoding plasmids. Specifically, GPR103 was N-terminally modified with an HA signal sequence followed by a FLAG epitope and then a flexible linker ([…]; the FLAG epitope is underlined) and inserted into the pCAGGS vector. Plasmid encoding GPR103 mutants were generated using Quickchange Site-Directed Mutagensis kit (Agilent).
The TGFα shedding assay was performed as described previously with minor modifications. Plasmid transfection was performed in a 6-well plate with a mixture of 500 ng (per well in a 6-well plate) AP-TGFα-encoding plasmid and 200 ng GPR103-encoding plasmid. After 1-day culture, the transfected cells were harvested by trypsinization, pelleted by centrifugation at 190 × g for 5 min, and washed once with 5 mM HEPES (pH 7.4)-containing Hank’s Balanced Salt Solution (HBSS). After centrifugation, the cells were resuspended in 8 mL of the HEPES-containing HBSS. The cell suspension was seeded in a 96-well culture plate (cell plate) at a volume of 90 μL (per well hereafter) and incubated in a 37 °C incubator with 5% CO2 for 30 min. […] After spinning the cell plates at 190 × g for 2 min, 80 μL of conditioned media was transferred to an empty 96-well plate (conditioned media (CM) plate). Then, 80 μL of AP reaction solution (10 mM p-nitrophenylphosphate (p-NPP), 120 mM Tris-HCl (pH 9.5), 40 mM NaCl, and 10 mM MgCl2) was dispensed into the cell plates and the CM plates. Absorbance at 405 nm of the plates was measured using a microplate reader (SpectraMax 340 PC384, Molecular Devices) before and after 1-h incubation at room temperature. Ligand-induced AP-TGFα release was calculated by subtracting spontaneous AP-TGFα release signal from ligand-induced AP-TGFα release signal. The AP-TGFα release signals were fitted to a four-parameter sigmoidal concentration–response curve, using the Prism 10 software (GraphPad Prism). For each replicate experiment, the pEC50 parameter (negative logarithmic values of EC50 values) of the individual GPR103 mutants were normalized to that of the wild-type GPR103 performed in parallel, and resulting ∆pEC50 values were used to denote ligand response activity of the mutants. […]
Exp. le vel: WT (1:5 0)Exp. le vel: WT (1:5 0)Exp. le vel: WT (1:5 0)Exp. le vel: WT (1:2 0)Exp. le vel: WT (1:2 0)Exp. le vel: WT (1:1 0) […]
L1 4N - t e r mA F2 5N - t e r mA I 2 6N - t e r mA Y 2 9N - t e r mA C 9 82 .5 7A T10 22 .6 1A Exp . l eve l: WT (1 :5)Exp . l evel : >WT (1 :1)Exp. le vel: WT (1:2 0)Exp. le vel: WT (1:2 0)Exp. le vel: WT (1:5 0)Exp . l eve l: WT (1 :1) […]
Exp. le vel: WT (1:1 0)Exp. le vel: WT (1:2 0) C 1 1 83 .2 5AExp. le vel: WT (1:5 0)Exp. le vel: WT (1:5 0)Exp. le vel: WT (1:2 0)Exp . l eve l: WT (1 :5) […]
Exp. le vel: WT (1:5 0)Exp. le vel: WT (1:1 0)Exp. le vel: WT (1:5 0) E203ECL2AExp . l evel : >WT (1 :1)Exp. le vel: WT (1:5 0)Exp. le vel: WT (1:5 0) […]
Exp . l eve l: WT (1 :1) F28Exp. le vel: WT (1:5 0) C 2 8 56 .4 7AExp. le vel: WT (1:2 0) WExp. le vel: WT (1:2 0) F28Exp. le vel: WT (1:5 0)Exp . l evel : >WT (1 :1) […]
Exp. le vel: WT (1:5 0)Exp. le vel: WT (1:5 0) C 3 2 77 .4 8AExp . l eve l: WT (1 :5)Exp . l evel : >WT (1 :1)Exp . l evel : >WT (1 :1) […]
Suppl eme nt ary Figure 1 | Mutational analysis of GPR103. […]
mutants. Data are presented as mean values ± SEM, normally n=3-5; dots), each performed in triplicate. b-d Cell-surface expression (b) and QRFP26-in-duced activation of GPR103 (c, d) were analyzed by the flow cytometry and the TGFα shedding assay, respectively. From the concentration–response curves (a), Emax (c) and ΔpEC50 (d) values relative to the wild type were calculated. Colors in the mutant bars indicate an expression level matching to that of titrated wild type. Statistical analyses were performed using the ordinary one-way ANOVA followed by Dunnett tests with the expression-matched […]

TSGPLGNLAEELNGYSRKKGGFSFRF-NH2 [QRFP26]
Emax (Exp. #1): 18.32 % WT
Emax (Exp. #2): 10.80 % WT
Emax (Exp. #3): 19.27 % WT
Emax (mean, read-out: Emax): 16.1%
EC50 (n = 3): 105 nM
Emax (n = 3, read-out: Emax): 16.6 ± 2.2%
